Values joined by “and” are separate entries in the source; they are usually repeats but may differ in a detail not shown here. Identical values can stand only once.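 Growth conditions: 96-well plates. Treatment: test compound, 48 hours, 5 concentrations. Analysis: linear interpolation between bracketing concentrations; unreached endpoints set to highest concentration. GI50 marks 50% less growth. At the TGI there is no net growth.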
Key:
Test in all cases: inhibition of tumour cell growth, NCI panel, 48 h
LXFL 529 NSCLC = system: LXFL 529 NSCLC
M19-MEL melanoma = system: M19-MEL melanoma
DMS 114 small cell lung = system: DMS 114 small cell lung
XF 498 CNS = system: XF 498 CNS
RXF-631 renal = system: RXF-631 renal
DLD-1 colon = system: DLD-1 colon
DMS 273 small cell lung = system: DMS 273 small cell lung
HOP-18 NSCLC = system: HOP-18 NSCLC
SNB-78 CNS = system: SNB-78 CNS
SN12K1 renal = system: SN12K1 renal

Row | SMILES | TGI (LXFL 529 NSCLC) | TGI (M19-MEL melanoma) | TGI (DMS 114 small cell lung) | TGI (XF 498 CNS) | TGI (RXF-631 renal) | TGI (DLD-1 colon) | TGI (DMS 273 small cell lung) | TGI (HOP-18 NSCLC) | TGI (SNB-78 CNS) | GI50 (LXFL 529 NSCLC) | GI50 (M19-MEL melanoma) | GI50 (DMS 114 small cell lung) | GI50 (XF 498 CNS) | GI50 (DLD-1 colon) | GI50 (SNB-78 CNS) | GI50 (DMS 273 small cell lung) | GI50 (HOP-18 NSCLC) | GI50 (SN12K1 renal) | TGI (SN12K1 renal)
1 | CC(Nc1ccc(S(=O)(=O)N=C(N)N)cc1)c1c2ccccc2nc2ccccc12 (stereo not drawn) | 80.6 µM | > 100 µM | > 100 µM | 36.1 µM | 96.6 µM | > 100 µM | > 100 µM | – | – | – | – | – | – | – | – | – | – | – | –
2 | O=c1ncc(F)cn1C1OC(CO)C(O)C1O (stereo not drawn) | > 43.8 µM | > 54 µM | > 41.9 µM | > 100 µM | > 100 µM | > 100 µM | > 44.6 µM | > 100 µM | > 100 µM | – | – | – | – | – | – | – | – | – | –
3 | COC(=O)C(C(=O)OC)C1CCCC(=O)C1 (stereo not drawn) | > 100 µM | > 100 µM | – | > 100 µM | – | > 100 µM | > 100 µM | > 100 µM | > 100 µM | – | – | – | – | – | – | – | – | – | –
4 | COC(=O)C(C(=O)C(=O)Nc1ccc([N+](=O)[O-])cc1[N+](=O)[O-])c1nc2ccc(Cl)cc2[nH]c1=O (stereo not drawn) | – | > 100 µM | > 100 µM | > 100 µM | – | > 100 µM | > 100 µM | > 100 µM | > 100 µM | – | – | – | – | – | – | – | – | – | –
5 | CN1C(=O)C2C3C=C4c5ccccc5N(c5ccccc5)C4(C2C1=O)[C@H]1C(=O)N(C)C(=O)[C@@H]31 (stereo partly drawn) | > 100 µM | > 100 µM | > 100 µM | > 100 µM | – | > 100 µM | – | – | – | – | – | – | – | – | – | – | – | – | –
6 | Cc1ccc(S(=O)(=O)NC2(C=O)CCCC3CCCCC32)cc1 (stereo not drawn) | > 100 µM | > 100 µM | > 100 µM | – | > 100 µM | > 100 µM | > 100 µM | > 100 µM | > 100 µM | – | – | – | – | – | – | – | – | – | –
7 | NC(=O)/N=C1/CCC2C3CCCC2C13 | > 100 µM | – | > 100 µM | > 100 µM | – | > 100 µM | > 100 µM | > 100 µM | > 100 µM | – | – | – | – | – | – | – | – | – | –
8 | CCC[CH2][Sn]1([CH2]CCC)[O]CC(CN(C)Cc2ccccc2)[O]1 (stereo not drawn) | 5 µM | 19.8 µM | 14.3 µM | 9.77 µM | – | 26.1 µM | 20.5 µM | – | 10.8 µM | 1.6 µM | 6.73 µM | 4.73 µM | 3.33 µM | 12.3 µM | 2.14 µM | 4.93 µM | – | – | –
9 | Cn1cnc([N+](=O)[O-])c1Sc1nccn1-c1cccc2ccccc12 | 99.4 µM | 98.9 µM | 62 µM | 58.9 µM | 84.2 µM | 98.5 µM | 79.8 µM | 8.89 µM | 77.9 µM | – | – | – | – | – | – | – | – | – | –
10 | Cc1cccc(C(C)(C)C)c1NC(=O)CC1C(=O)Nc2ccccc2S1(=O)=O (stereo not drawn) | 24.5 µM | 24.8 µM | – | 23.1 µM | – | 18.3 µM | 14.9 µM | – | 22.1 µM | – | – | – | – | – | – | – | – | – | –
11 | Cc1cccc(C)c1NC(=O)C1C(=O)N(c2c(C)cccc2C)C(=O)/C1=N\N (stereo not drawn) | > 100 µM | > 100 µM | – | – | > 100 µM | > 100 µM | > 100 µM | > 100 µM | – | – | – | – | – | – | – | – | – | – | –
12 | CC(=O)C1C(c2ccc(N(C)C)cc2)c2cc3c(cc2OC1(C)O)OCO3 (stereo not drawn) | – | > 100 µM | 93.3 µM | > 100 µM | – | > 100 µM | > 100 µM | > 100 µM | > 100 µM | – | – | – | – | – | – | – | – | – | –
13 | Oc1ccc2ccccc2c1N=Nc1ccsc1 | > 100 µM | > 100 µM | > 100 µM | – | > 100 µM | > 100 µM | > 100 µM | > 100 µM | > 100 µM | – | – | – | – | – | – | – | – | – | –
14 | CC12CCC3(OCCO3)C(OC(=O)c3ccccc3)=C1CCC21OCCO1 (stereo not drawn) | > 100 µM | > 100 µM | > 100 µM | – | > 100 µM | > 100 µM | > 100 µM | > 100 µM | > 100 µM | – | – | – | – | – | – | – | – | – | –
15 | O=C(O)C1(C(=O)O)CCC1.[NH2-].[NH2-].[Pt+2] | > 250 µM | – | – | – | – | > 237 µM | 228 µM | 118 µM | 217 µM | 247 µM | – | – | – | 206 µM | 96.4 µM | 64.7 µM | > 77.3 µM and 111 µM | 107 µM | 185 µM
16 | Cc1ccc(NC(=O)CC2Sc3ccccc3NC2=O)c(C)c1 (stereo not drawn) | 71.1 µM | 48.2 µM | 51.7 µM | 37.5 µM | 33.1 µM | 31 µM | 37.5 µM | 30.2 µM | 63.2 µM | – | – | – | – | – | – | – | – | – | –
17 | C/C(CC(=O)Nc1ccc(C)c(C)c1)=N\NC(N)=O | > 100 µM | > 100 µM | > 100 µM | – | – | > 100 µM | – | – | > 100 µM | – | – | – | – | – | – | – | – | – | –
18 | O=[P+](O)c1ccsc1 | > 100 µM | > 100 µM | > 100 µM | – | > 100 µM | > 100 µM | > 100 µM | > 100 µM | – | – | – | – | – | – | – | – | – | – | –
19 | O=c1c(Br)cc2nc3ccccc3sc-2c1Br | > 100 µM | 32.4 µM | 34.6 µM | 61.8 µM | > 100 µM | > 100 µM | > 100 µM | – | > 100 µM | – | – | – | – | – | – | – | – | – | –
20 | O=C(O)CCC(N=Cc1nc(-c2ccccc2)oc1O)C(=O)O (stereo not drawn) | > 100 µM | > 100 µM | > 100 µM | – | > 100 µM | > 100 µM | > 100 µM | > 100 µM | > 100 µM | – | – | – | – | – | – | – | – | – | –
21 | CCOC(=O)N1CCC(=O)C(CNC23CC4CC(CC(C4)C2)C3)C1 (stereo not drawn) | 33.3 µM | 35.3 µM | – | 32.8 µM | > 100 µM | 46.4 µM | 52.9 µM | – | – | – | – | – | – | – | – | – | – | – | –
22 | CC(C)([NH-])CO.CC(C)([NH-])CO.[Cl][Cd][Cl] | 29.3 µM | 38.3 µM | 46.7 µM | 69.1 µM | – | – | 30.2 µM | – | – | 15 µM | 16.9 µM | 19.8 µM | 20.4 µM | – | – | 13.5 µM | – | – | –
23 | CCC/C(=N\NC(=S)N1CC2CCC(CC2)C1)c1ccccn1 | 0.143 µM and 0.129 µM | 0.298 µM and 1.46 µM | – | 0.0981 µM and 0.53 µM | – | 3.33 µM | 0.374 µM and 2.35 µM | 0.44 µM and 0.898 µM | 8.71 µM | – | – | – | 0.0106 µM | – | 0.408 µM | – | 0.0675 µM | – | –
